Patent US20230295087A1, “AGONISTS OF ROR GAMMAt” (BRISTOL-MYERS SQUIBB COMPANY, priority 2019, published 2023)

Target: T1, human RORgT (Homo sapiens, UniProt P51449)
T1 construct: expressed in transfected cells
T1 sequence (P51449 267-516): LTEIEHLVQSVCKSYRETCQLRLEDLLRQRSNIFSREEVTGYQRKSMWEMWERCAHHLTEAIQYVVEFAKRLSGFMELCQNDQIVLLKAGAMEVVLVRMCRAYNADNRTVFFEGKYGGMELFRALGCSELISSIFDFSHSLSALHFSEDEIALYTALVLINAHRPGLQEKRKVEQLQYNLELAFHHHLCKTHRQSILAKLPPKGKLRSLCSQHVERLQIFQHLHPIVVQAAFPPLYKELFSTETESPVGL
Assay: RORgT Gal4 Luciferase Reporter Gene Assay
Format: cell-based
Details: engineered Jurkat cells overexpressing RORgT (LBD or full length) fused with Gal4 Luc reporter; 18 hours at 37° C.; luminescence
How it was run: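 Jurkat cells expressing Gal4 Luc with either RORgT LBD (aa267-516) or full-length human RORgT, 10,000 cells/well, treated with compound (40 µM to 0.67 nM final, 3-fold dilutions) for 18 h at 37° C. Steady-Glo luminescence read; inhibition of constitutive activity as % signal-window reduction relative to a control compound.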

First: Cc1ccccc1COc1ccc2c(c1)CC[C@H]1N(C(=O)C3CCS(=O)(=O)CC3)CC[C@@]21S(=O)(=O)c1ccccc1 [Example 124, 4-[(3aR,9bR)-9b-(benzenesulfonyl)-7-[(2-methylphenyl)methoxy]-1H,2H,3H,3aH,4H,5H,9bH-benzo[e]indole-3-carbonyl]-1λ^6-thiane-1,1-dione]
Second: O=C(C1CCS(=O)(=O)CC1)N1CC[C@@]2(S(=O)(=O)c3ccccc3)c3ccc(OCc4ccccc4Cl)cc3CC[C@@H]12 [Example 127, 4-[(3aR,9bR)-9b-(benzenesulfonyl)-7-[(2-chlorophenyl)methoxy]-1H,2H,3H,3aH,4H,5H,9bH-benzo[e]indole-3-carbonyl]-1λ^6-thiane-1,1-dione]
The EC50 of the first is 2.8-fold higher: 0.034 µM for the first, 0.012 µM for the second. The second is the more potent here.

Compared with `O=C(C1CCS(=O)(=O)CC1)N1CC[C@@]2(S(=O)(=O)c3ccccc3)c3ccc(OCC4CCCCC4)cc3CC[C@@H]12` [Example 125, 4-[(3aR,9bR)-9b-(benzenesulfonyl)-7-(cyclohexylmethoxy)-1H,2H,3H,3aH,4H,5H,9bH-benzo[e]indole-3-carbonyl]-1λ^6-thiane-1,1-dione], `O=C(C1CCS(=O)(=O)CC1)N1CC[C@@]2(S(=O)(=O)c3ccccc3)c3ccc(OCc4c(Cl)cccc4Cl)cc3CC[C@@H]12` [Example 126, 4-[(3aR,9bR)-9b-(benzenesulfonyl)-7-[(2,6-dichlorophenyl)methoxy]-1H,2H,3H,3aH,4H,5H,9bH-benzo[e]indole-3-carbonyl]-1λ^6-thiane-1,1-dione] is 2.8-fold lower in EC50: 0.024 µM for the first, 0.0085 µM for the second. The second is the more potent here.

`O=C(C1CCS(=O)(=O)CC1)N1CC[C@@]2(S(=O)(=O)c3ccc(F)cc3)c3ccc(OCc4c(Cl)cccc4Cl)cc3CC[C@@H]12` [Example 128, 4-[(3aR,9bR)-7-[(2,6-dichlorophenyl)methoxy]-9b-(4-fluorobenzenesulfonyl)-1H,2H,3H,3aH,4H,5H,9bH-benzo[e]indole-3-carbonyl]-1λ^6-thiane-1,1-dione] and `O=C(C1CCS(=O)(=O)CC1)N1CC[C@@]2(S(=O)(=O)c3ccccc3)c3ccc(OCc4cc(F)ccc4Cl)cc3CC[C@@H]12` [Example 130, 4-[(3aR,9bR)-9b-(benzenesulfonyl)-7-[(2-chloro-5-fluorophenyl)methoxy]-1H,2H,3H,3aH,4H,5H,9bH-benzo[e]indole-3-carbonyl]-1λ^6-thiane-1,1-dione] are within 1.5-fold of each other in EC50: 0.013 µM for the first, 0.012 µM for the second.

`O=C(C1CCS(=O)(=O)CC1)N1CC[C@@]2(S(=O)(=O)c3ccccc3)c3ccc(OCc4cc(Cl)ccc4Cl)cc3CC[C@@H]12` [Example 129, 4-[(3aR,9bR)-9b-(benzenesulfonyl)-7-[(2,5-dichlorophenyl)methoxy]-1H,2H,3H,3aH,4H,5H,9bH-benzo[e]indole-3-carbonyl]-1λ^6-thiane-1,1-dione] and `O=C(C1CCS(=O)(=O)CC1)N1CC[C@@]2(S(=O)(=O)c3ccccc3)c3ccc(OCc4ccc(F)cc4Cl)cc3CC[C@@H]12` [Example 134, 4-[(3aR,9bR)-9b-(benzenesulfonyl)-7-[(2-chloro-4-fluorophenyl)methoxy]-1H,2H,3H,3aH,4H,5H,9bH-benzo[e]indole-3-carbonyl]-1λ^6-thiane-1,1-dione] are within 1.5-fold of each other in EC50: 0.017 µM for the first, 0.022 µM for the second.

First: O=C(C1CCS(=O)(=O)CC1)N1CC[C@@]2(S(=O)(=O)c3ccccc3)c3ccc(OCc4c(F)ccc(F)c4Cl)cc3CC[C@@H]12 [Example 131, 4-[(3aR,9bR)-9b-(benzenesulfonyl)-7-[(2-chloro-3,6-difluorophenyl)methoxy]-1H,2H,3H,3aH,4H,5H,9bH-benzo[e]indole-3-carbonyl]-1λ^6-thiane-1,1-dione]
Second: O=C(C1CCS(=O)(=O)CC1)N1CC[C@@]2(S(=O)(=O)c3ccccc3)c3ccc(OCc4c(F)cccc4F)cc3CC[C@@H]12 [Example 133, 4-[(3aR,9bR)-9b-(benzenesulfonyl)-7-[(2,6-difluorophenyl)methoxy] -1H,2H,3H,3aH,4H,5H,9bH-benzo[e]indole-3-carbonyl]-1λ^6-thiane-1,1-dione]
The EC50 of the first is 2-fold lower: 0.0086 µM for the first, 0.017 µM for the second.

`O=C(C1CCS(=O)(=O)CC1)N1CC[C@@]2(S(=O)(=O)c3ccccc3)c3ccc(OCc4c(F)cccc4C(F)(F)F)cc3CC[C@@H]12` [Example 132, 4-[(3aR,9bR)-9b-(benzenesulfonyl)-7-{[2-fluoro-6-(trifluoromethyl)phenyl]methoxy}-1H,2H,3H,3aH,4H,5H,9bH-benzo[e]indole-3-carbonyl]-1λ^6-thiane-1,1-dione] and `O=C(C1CCS(=O)(=O)C1)N1CC[C@@]2(S(=O)(=O)c3ccccc3)c3ccc(OCc4c(F)cccc4Cl)cc3CC[C@@H]12` (stereo partly drawn) [Example 135, 3-[(3aR,9bR)-9b-(benzenesulfonyl)-7-[(2-chloro-6-fluorophenyl)methoxy]-1H,2H,3H,3aH,4H,5H,9bH-benzo[e]indole-3-carbonyl]-1λ^6-thiolane-1,1-dione] are within 1.5-fold of each other in EC50: 0.0095 µM for the first, 0.0097 µM for the second.

First: CC(=O)N1CCC(C(=O)N2CC[C@@]3(S(=O)(=O)c4ccccc4)c4ccc(OCc5c(F)cccc5Cl)cc4CC[C@@H]23)CC1 [Example 136, 1-{4-[(3aR,9bR)-9b-(benzenesulfonyl)-7-[(2-chloro-6-fluorophenyl)methoxy]-1H,2H,3H,3aH,4H,5H,9bH-benzo[e]indole-3-carbonyl]piperidin-1-yl}ethan-1-one]
Second: NC(=O)N1CCC(C(=O)N2CC[C@@]3(S(=O)(=O)c4ccccc4)c4ccc(OCc5c(F)cccc5Cl)cc4CC[C@@H]23)CC1 [Example 141, 4-[(3aR,9bR)-9b-(benzenesulfonyl)-7-[(2-chloro-6-fluorophenyl)methoxy]-1H,2H,3H,3aH,4H,5H,9bH-benzo[e]indole-3-carbonyl]piperidine-1-carboxamide]
The EC50 of the first is 1.6-fold higher: 0.016 µM for the first, 0.01 µM for the second. The second is the more potent here.

`CS(=O)(=O)N1CCC(C(=O)N2CC[C@@]3(S(=O)(=O)c4ccccc4)c4ccc(OCc5c(F)cccc5Cl)cc4CC[C@@H]23)CC1` [Example 137, 4-[(3aR,9bR)-9b-(benzenesulfonyl)-7-[(2-chloro-6-fluorophenyl)methoxy]-1H,2H,3H,3aH,4H,5H,9bH-benzo[e]indole-3-carbonyl]-1-methanesulfonylpiperidine] and `O=C(O)[C@H]1CC[C@H](C(=O)N2CC[C@@]3(S(=O)(=O)c4ccccc4)c4ccc(OCc5c(F)cccc5Cl)cc4CC[C@@H]23)CC1` [Example 142, (1r,4r)-4-[(3aR,9bR)-9b-(benzenesulfonyl)-7-[(2-chloro-6-fluorophenyl)methoxy]-1H,2H,3H,3aH,4H,5H,9bH-benzo[e]indole-3-carbonyl]cyclohexane-1-carboxylic acid] are within 1.5-fold of each other in EC50: 0.0088 µM for the first, 0.013 µM for the second.

Compared with `O=C1CC[C@@H](C(=O)N2CC[C@@]3(S(=O)(=O)c4ccccc4)c4ccc(OCc5c(F)cccc5Cl)cc4CC[C@@H]23)N1` [Example 138, (5S)-5-[(3aR,9bR)-9b-(benzenesulfonyl)-7-[(2-chloro-6-fluorophenyl)methoxy]-1H,2H,3H,3aH,4H,5H,9bH-benzo[e]indole-3-carbonyl]pyrrolidin-2-one], `O=C1CC[C@H](C(=O)N2CC[C@@]3(S(=O)(=O)c4ccccc4)c4ccc(OCc5c(F)cccc5Cl)cc4CC[C@@H]23)N1` [Example 143, (5R)-5-[(3aR,9bR)-9b-(benzenesulfonyl)-7-[(2-chloro-6-fluorophenyl)methoxy]-1H,2H,3H,3aH,4H,5H,9bH-benzo[e]indole-3-carbonyl]pyrrolidin-2-one] is 22-fold higher in EC50: 0.0088 µM for the first, 0.195 µM for the second. The first is the more potent here.

Going from `O=C(CN1CCS(=O)(=O)CC1)N1CC[C@@]2(S(=O)(=O)c3ccccc3)c3ccc(OCc4c(F)cccc4Cl)cc3CC[C@@H]12` [Example 139, 4-{2-[(3aR,9bR)-9b-(benzenesulfonyl)-7-[(2-chloro-6-fluorophenyl)methoxy]-1H,2H,3H,3aH,4H,5H,9bH-benzo[e]indol-3-yl]-2-oxoethyl}-1λ^6-thiomorpholine-1,1-dione] to `CS(=O)(=O)NCC(=O)N1CC[C@@]2(S(=O)(=O)c3ccccc3)c3ccc(OCc4c(F)cccc4Cl)cc3CC[C@@H]12` [Example 145, N-{2-[(3aR,9bR)-9b-(benzenesulfonyl)-7-[(2-chloro-6-fluorophenyl)methoxy]-1H,2H,3H,3aH,4H,5H,9bH-benzo[e]indol-3-yl]-2-oxoethyl} methanesulfonamide], the EC50 rises from 0.014 µM to 0.614 µM (44-fold).

`O=C1CC(C(=O)N2CC[C@@]3(S(=O)(=O)c4ccccc4)c4ccc(OCc5c(F)cccc5Cl)cc4CC[C@@H]23)CN1` (stereo partly drawn) [Example 140, 4-[(3aR,9bR)-9b-(benzenesulfonyl)-7-[(2-chloro-6-fluorophenyl)methoxy]-1H,2H,3H,3aH,4H,5H,9bH-benzo[e]indole-3-carbonyl]pyrrolidin-2-one] and `CN1NC(=O)C[C@H]1C(=O)N1CC[C@@]2(S(=O)(=O)c3ccccc3)c3ccc(OCc4c(F)cccc4Cl)cc3CC[C@@H]12` [Example 144, (5S)-5-[(3aR,9bR)-9b-(benzenesulfonyl)-7-[(2-chloro-6-fluorophenyl)methoxy]-1H,2H,3H,3aH,4H,5H,9bH-benzo[e]indole-3-carbonyl]-1-methylpyrazolidin-3-one] are within 1.5-fold of each other in EC50: 0.134 µM for the first, 0.111 µM for the second.

Compared with `[2H]C([2H])([2H])N1C(=O)CC[C@H]1C(=O)N1CC[C@@]2(S(=O)(=O)c3ccccc3)c3ccc(OCc4c(F)cccc4Cl)cc3CC[C@@H]12` [Example 146, (5S)-5-[(3aR,9bR)-9b-(benzenesulfonyl)-7-[(2-chloro-6-fluorophenyl)methoxy]-1H,2H,3H,3aH,4H,5H,9bH-benzo[e]indole-3-carbonyl]-1-(^2H)methylpyrrolidin-2-one], `O=C(O)C12CCC(C(=O)N3CC[C@@]4(S(=O)(=O)c5ccccc5)c5ccc(OCc6c(F)cccc6Cl)cc5CC[C@@H]34)(CC1)CC2` [Example 147, 4-[(3aR,9bR)-9b-(benzenesulfonyl)-7-[(2-chloro-6-fluorophenyl)methoxy]-1H,2H,3H,3aH,4H,5H,9bH-benzo[e]indole-3-carbonyl]bicyclo[2.2.2]octane-1-carboxylic acid] is 16-fold higher in EC50: 0.0065 µM for the first, 0.104 µM for the second.
